Source: ChEMBL document CHEMBL3886800, “Disubstituted 3,4-diamino-3-cyclobutene-1,2-dione compounds for use in the treatment of chemokine-mediated diseases” (2016)

Assays:
[1] = molecular target: T1, C-X-C chemokine receptor type 2 (Homo sapiens, UniProt P25025); test: (§1) In Vitro Affinity Assay: ⿿PathHunter HEK293-CXCR2⿝ or ⿿U2OS hCXCR1 β-arrestin⿝ cells (DiscoveRx Corporation) were seeded overnight at 10 000 cells/well (384-well format) in 20 μl of Opti MEM I medium. A preincubation with the antagonist or the vehicle for 30 min at 37° C. and 5% CO2 was followed by 60 minutes of stimulation with CXCL8 at 37° C. and 5% CO2. The cells were then placed at ambient temperature for 30 minutes. The PathHunter detection reagent (DiscoveRx Corporation) was added. After incubation for 60 min at ambient temperature, the […] during the β-arrestin-CXCR2 interaction was measured for 0.3 s in an Envision 2102 Multilabel Reader (PerkinElmer Life and Analytical Sciences).
T1 sequence (P25025 whole entry): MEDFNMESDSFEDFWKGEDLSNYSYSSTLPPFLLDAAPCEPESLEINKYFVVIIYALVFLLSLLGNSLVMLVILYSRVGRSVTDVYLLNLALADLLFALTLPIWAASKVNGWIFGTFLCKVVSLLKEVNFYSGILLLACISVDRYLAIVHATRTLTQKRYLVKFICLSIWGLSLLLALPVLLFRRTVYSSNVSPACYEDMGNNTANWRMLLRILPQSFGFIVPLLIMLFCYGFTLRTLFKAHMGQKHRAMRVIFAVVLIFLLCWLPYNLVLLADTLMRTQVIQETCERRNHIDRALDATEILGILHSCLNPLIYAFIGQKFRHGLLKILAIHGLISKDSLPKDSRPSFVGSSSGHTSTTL

[2] = molecular target: T2, C-X-C chemokine receptor type 1 (Homo sapiens, UniProt P25024); test: as §1
T2 sequence (P25024 whole entry): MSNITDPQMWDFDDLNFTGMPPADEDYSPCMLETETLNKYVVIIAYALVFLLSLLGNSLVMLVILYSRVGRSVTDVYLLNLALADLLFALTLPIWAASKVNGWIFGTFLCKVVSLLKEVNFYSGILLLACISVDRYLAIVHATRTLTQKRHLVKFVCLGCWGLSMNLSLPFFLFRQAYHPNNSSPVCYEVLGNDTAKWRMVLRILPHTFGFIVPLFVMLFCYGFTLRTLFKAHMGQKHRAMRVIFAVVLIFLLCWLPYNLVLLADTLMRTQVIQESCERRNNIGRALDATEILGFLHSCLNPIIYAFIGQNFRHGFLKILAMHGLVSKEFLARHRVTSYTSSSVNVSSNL

Q: Which results are given for `Cc1ccc(C(Nc2c(Nc3ccc(Cl)c(C(=O)N(C)C)c3O)c(=O)c2=O)C2CCCS2)o1` (single isomer, unassigned)?
A: IC50 [1]: 69 nM; IC50 [2]: 113 nM

Q: Which IC50 [1] does the source give for `Cc1ccc(C(Nc2c(Nc3cccnc3O)c(=O)c2=O)C2CCCS2)o1` (centres undefined) here?
A: 23 nM

Q: What about the IC50 [2] of the same compound?
A: 652 nM
